The subject of series [1] is PCSK9. The experiment in a line: PCSK9 expression in hepatocytes (immunoblot, real-time PCR). It counts as cell-based, human, mouse. To be noted: HuH7; ryanodine 10 μM, CDN 100 μM, 2 APB 50 μM; presence or absence of TG; 24 h. As to the method:
(§1) HuH7 and HepG2 cells were routinely grown in complete Dulbecco's Modified Eagle's Medium (Gibco, Thermofisher Scientific) supplemented with 10% fetal bovine serum (Sigma-Aldrich) and 100 U/ml of penicillin and streptomycin (Sigma-Aldrich). […] All cell treatments were carried out for 24 h unless otherwise stated. Cells were transfected with a cocktail consisting of plasmid DNA (1 μg), X-tremeGENE HP (3 μl; Thermofisher Scientific) and opti-MEM (100 μl; Thermofischer Scientific) per 1 ml complete medium containing plated cells. Human PCSK9 was overexpressed using the bicistronic pIRES-EGFP plasmid; calnexin using the mPA-GFP-N1 plasmid. To block the expression of GRP78 and CD36, siGENOME smartpool siRNA was purchased from GE Dharmacon (M-008198-02 and L-010206-00-0005 respectively) and transfected using lipofectamine RNAiMAX as per manufacturer's protocol.
(§2) Cells were washed in phosphate-buffered saline (PBS), lysed in 4× SDS-PAGE lysis buffer and separated on 7-10% polyacrylamide gels in denaturing conditions. Gels were transferred to nitrocellulose membranes using the BioRad mini trans-blot system, blocked in 5% skim milk in tris-buffered saline (TBS) for 1 h and incubated in primary antibody overnight for 16 h at 4° C. Membranes were then exposed to horse radish peroxidase conjugated secondary antibodies and visualized using EZ-ECL chemiluminescent reagent (Froggabio). Band intensities were quantified using ImageJ software ([…]) against membranes reprobed for housekeeping proteins.
(§3) RNA purification/isolation was performed using RNeasy mini kits (Qiagen) and normalized to 2 μg RNA using a NanoDrop® spectrophotometer. Samples were then reverse transcribed into cDNA using Superscript Vilo cDNA Synthesis kit (Thermofisher Scientific). Real-time PCR was executed with Fast SYBR Green (Thermo Fisher Scientific) using the ΔΔct method on the ViiA7 real-time PCR platform (Thermofisher Scientific).
Cultured immortalized hepatocytes known to express and secrete PCSK9 (Lebeau, P., et al., 2017), including HuH7 and HepG2 cells, as well as primary mouse- and human-hepatocytes (PMH and PHH, respectively), were treated with CF for 24 h and assessed for PCSK9 expression via immunoblots and real-time PCR (FIG. 1 A to D). […] Given that sterol deprivation represents another well-established promoter of SREBP2 activation (Lebeau, P., et al., 2017), cells were also treated with CF in the presence and absence of U18666A (U18) that depletes intracellular sterols. […] Next, HepG2 cells were treated with an increasing dose of CF.

In series [2] the test system is PCSK9. The experiment in a line: PCSK9 secretion from cultured and primary hepatocytes (ELISA of medium). Type of series: cell-based, human, mouse. To be noted: ELISA of medium. The procedure: as §1
(§4) Secreted PCSK9 levels were assessed directly in cell culture medium of cells grown in FBS-free medium for 24 h or in the serum isolated from either mice or human subjects. Mouse PCSK9 was measured using the Quantikinine® ELISA kit (#MCP900, R&D Systems) and human PCSK9 using the PCSK9 Quantikinine® ELISA kit (#DCP900, R&D Systems). Serum ApoB levels were also quantified using ELISAs (#DAPB00, R&D Systems). Serum samples were diluted as per manufacturer's instructions.
All animal studies were carried out in 8 h-fasted male wild-type, Pcsk9^−/− or Ampkβ1^−/− mice on the C57BL/6J background. CF (25-100 mg/kg-8 h) and CDN (50 mg/kg) treatments were administered via intraperitoneal injection unless specified otherwise. Primary mouse hepatocytes were isolated using a two-step process with EGTA ([…] in HEPES buffer, Sigma Aldrich) and collagenase (0.05% in HEPES buffer, Sigma Aldrich) in 12-week-old male mice on the C57BL/6J background. Cells were then washed, centrifuged, and plated following isolation in cell strainers. Hepatosure® 100-donor pooled primary human hepatocytes were purchased from Xenotech. Primary hepatocytes were regularly grown in William's E medium (Gibco, Thermo Fisher Scientific) containing 10% fetal bovine serum, 100 IU/ml penicillin, and 100 µg/ml streptomycin.

Series [3] relates to ER stress markers (GRP78, ATF4, pPERK, IRE1α, sXBP1, ATF6). Kind of series: ER stress / UPR readouts in hepatocytes. It counts as cell-based, human. The settings on record: HuH7; with TG 100 nM. The procedure:
as §2
Following treatment, live cells were incubated in complete DMEM containing 5 μM Thioflavin-T (ThT; Thermofisher Scientific) for 15 minutes. Cells were then fixed in 4% paraformaldehyde and mounted with permafluor. Fluorescent staining was visualized using the EVOS FL colour system at either 20 or 40× magnification.
as §3
Because ER Ca^2+ depletion induces a compensatory unfolded protein response (UPR), it was also postulated that CF may attenuate UPR marker expression by increasing ER Ca^2+ levels. […] Reactive oxygen species production, a process known to occur during conditions of ER stress, was also attenuated by CF (FIG. 9 H). […] While increasing the protein binding ability of chaperones, such as GRP78, CF also attenuates SREBP2-driven gene expression (FIG. 7 L).

Series [4] deals with PCSK9. The experiment in a line: Secreted PCSK9 levels in HepG2 cells (ELISA). It counts as cell-based, human. To be noted: for PCSK9 mRNA expression and secreted levels with increasing doses / reduction of secreted PCSK9 levels compared to CF at the same dose: HepG2; for PCSK9 reduction (100 nM): Table 6, HepG2 cells, 24 h, 100 nM as printed in the cell; for efficacy for PCSK9 inhibition compared with caffeine: initial screening. The procedure: as §1, §4
CF, however, is a well-characterized compound having several health benefits with few known adverse effects. Achieving an optimal level of PCSK9 inhibition absent of the neuro-excitatory effect of CF, however, may be a challenge for the long-term clinical application of these findings. […] See Table 6 for the structure activity relationships of several other known xanthine-based compounds explored at varying doses in HepG2 cells for 24 h.

Another series has as its system SREBP2. Kind of series: SREBP2 expression and activation in hepatocytes (real-time PCR, SRE-GFP reporter, immunoblot, immunofluorescence). The settings on record: HepG2, real-time PCR. Type of series: cell-based, human, mouse. As to the method: as §2
Cells were plated in 4-well chamber slides and incubated in complete DMEM for 24 h and exposed to treatments 24 h later for an additional 24 h. Cells were fixed with 4% paraformaldehyde for 30 minutes and washed with either non-permeabilizing, or permeabilizing PBS containing 0.025% Triton-X. Cells were then blocked with 1% bovine serum albumin (BSA) for 30 minutes and stained with anti-GFP antibody for 1 h in PBS containing 1% BSA. Afterwards, cells were washed and incubated with Alexa 488 fluorescently-labelled secondary antibodies (Thermofisher Scientific), as well as the DAPI nuclear stain. Slides were then mounted with permafluor and visualized using the EVOS FL colour imaging system at either 20 or 40× magnification.
as §3
Therefore, the effect of CF on TG-; induced SREBP2 activation was examined. […] SREBP2 activity was then examined at the protein level in HuH7 cells transfected with a plasmid encoding GFP driven by the sterol regulatory element (SRE-GFP; FIG. 2E to G). […] GFP expression was also visualized via immunofluorescent staining and quantified using ImageJ Software.

A further series relates to HepG2 cells. The experiment in a line: DiI-LDL uptake assay in HepG2 cells. Type of series: cell-based, human. To be noted: for DiI-LDL cholesterol uptake: HepG2, 10 μM. As to the method: During the last 5 h of treatment (h 19 to 24) cells were exposed to DiI-LDL (10 μg/ml) and then washed with two changes of pre-warmed (37° C.) HBSS containing 20 mM HEPES prior to analysis.
(§5) The uptake and accumulation of DiI-LDL was then quantified using a fluorescent spectrophotometer (Molecular Devices). […] Live-cell staining of the LDLR was also performed in HepG2 cells exposed to DiI-LDL (FIG. 11 D).

In a further series the test system is LDLR. The experiment in a line: LDLR / CD36 expression in cultured hepatocytes. Type of series: cell-based, human. The settings on record: HepG2, 10 μM, immunofluorescent staining.
Description: Cells were washed in phosphate-buffered saline (PBS), lysed in 4× SDS-PAGE lysis buffer and separated on 7-10% polyacrylamide gels in denaturing conditions. […] Membranes were then exposed to horse radish peroxidase conjugated secondary antibodies and visualized using EZ-ECL chemiluminescent reagent (Froggabio). Band intensities were quantified using ImageJ software ([…]) against membranes reprobed for housekeeping proteins.
Slides were then mounted with permafluor and visualized using the EVOS FL colour imaging system at either 20 or 40× magnification.
as §3, §5

In the next series the test system is HepG2 hepatocytes. The experiment in a line: LDH cytotoxicity assay in HepG2 hepatocytes. To be noted: cultured HepG2 hepatocytes. It counts as cell-based, human. As to the method: Secreted PCSK9 levels were assessed using ELISAs and mRNA transcript via real-time PCR. […] Secreted PCSK9, as well as PCSK9 mRNA and SREBP2 mRNA were assessed in these cells. (E) The cytotoxicity of these agents was examined using an LDH assay. […] (G) The uptake of DiI-LDL was also quantified in these cells using a spectrophotometer. Values are presented as the mean and error bars as SD. *, p<0.05 vs. vehicle; NS, non-significant.

These results are taken from patent US20260151398A1, “COMPOUNDS FOR REDUCING CHOLESTEROL AND TREATING LIVER AND KIDNEY DISEASE” (McMaster University, priority 2021, published 2026).

Structures are written as SMILES.

As to `NCCOB(c1ccccc1)c1ccccc1` [2 APB, 2-APB], in the series with PCSK9 [1], the “SREBP2 and PCSK9 mRNA transcript level” value was “blocked SREBP2 and PCSK9 at the mRNA transcript level”. Moreover, in the series with PCSK9 [2], the “PCSK9 secretion with Ca2+-modulating agents” value is “blocked PCSK9 secretion”. In addition, the “TG-induced GRP78 expression” value in series [3] is on record as “blocked TG-induced expression”.

With `Cn1c(=O)c2c(nc(/C=C/c3cccc(Cl)c3)n2C)n(C)c1=O` [8CC, 8-(3-Chlorostyryl) CF], in the series with PCSK9 [4], the “PCSK9 mRNA expression and secreted levels with increasing doses” value is given as “dose-dependent reduction”.

Take `Cn1c(=O)c2[nH]c(C3CCCC3)nc2n(C)c1=O` [8CD, 8-cyclopentyl-1,3-dimethylxanthine]: in the series on PCSK9 [4], the “PCSK9 mRNA expression and secreted levels with increasing doses” value is on record as “dose-dependent reduction”.

For `Cn1c(=O)c2[nH]c(-c3ccncc3)nc2n(C)c1=O` [I-9], the “PCSK9 reduction (100 nM)” value in the series with PCSK9 [4] is 0.86 (100 nM).

As for `Cn1c(=O)c2[nH]c(-c3ccc([N+](=O)[O-])cc3)nc2n(C)c1=O` [I-10], the “PCSK9 reduction (100 nM)” value with PCSK9 [4] was 0.93 (100 nM).

For `Cn1c(=O)c2[nH]c(-c3cc(F)c(F)cc3F)nc2n(C)c1=O` [Ia-1], in the series with PCSK9 [4], the “reduction of secreted PCSK9 levels compared to CF at the same dose” value came to 2 fold and the “efficacy for PCSK9 inhibition compared with caffeine” value was “significantly greater efficacy for PCSK9 inhibition than caffeine”. In addition, the “PCSK9 and SREBP2 mRNA” value in the series on SREBP2 is “antagonism of SREBP2 reduced de novo synthesis of PCSK9”. The DiI-LDL cholesterol uptake result in the series with HepG2 cells is reported as “significant increase”. Besides, in the series with LDLR, the “cell-surface LDLR expression” value is “significant increase in LDLR expression”. The “cytotoxicity (LDH assay)” value with HepG2 hepatocytes is “did not exhibit cytotoxic properties”.

In the case of `Cn1c(=O)c2[nH]c(-c3ccc([N+](=O)[O-])o3)nc2n(C)c1=O` [Ia-7], in the series with PCSK9 [4], the “reduction of secreted PCSK9 levels compared to CF at the same dose” value was found to be 2 fold and the “efficacy for PCSK9 inhibition compared with caffeine” value was “significantly greater efficacy for PCSK9 inhibition than caffeine”. In addition, the “PCSK9 and SREBP2 mRNA” value in the series with SREBP2 is reported as “antagonism of SREBP2 reduced de novo synthesis of PCSK9”. Moreover, the DiI-LDL cholesterol uptake entry with HepG2 cells is “significant increase”. Besides, the “cell-surface LDLR expression” value in the series on LDLR was “significant increase in LDLR expression”. For the same compound, the “cytotoxicity (LDH assay)” value in the series with HepG2 hepatocytes was “did not exhibit cytotoxic properties”.

In the case of `CCCn1c(=O)[nH]c2nc(-c3ccc(S(=O)(=O)N4CCN(c5ccc(Cl)cc5)CC4)cc3)[nH]c2c1=O` [PSB603], the “PCSK9 mRNA expression and secreted levels with increasing doses” value with PCSK9 [4] was “dose-dependent reduction”.

Turning to `CCN(CC)CCO[C@H]1CC[C@@]2(C)C(=CC[C@@H]3[C@@H]2CC[C@]2(C)C(=O)CC[C@@H]32)C1` [U18, U18666A], in the series with PCSK9 [2], the “PCSK9 secretion with Ca2+-modulating agents” value is recorded as “increased PCSK9 secretion”. Further, the “LDLc (DiI-LDL) uptake” value in the series with HepG2 cells (HepG2, 24 h treatment, DiI-LDL 5 h) is “reduced LDLc uptake”.

Take `Cn1c(=O)[nH]c2ncn(C)c2c1=O` [paraxanthine]: the “PCSK9 mRNA expression and secreted levels with increasing doses” value with PCSK9 [4] is reported as “dose-dependent reduction”.

Take `CCCCCCCC/C=C\CCCCCCCC(=O)ON1C(=O)CC(S(=O)(=O)O)C1=O` (stereo not shown) [sulfosuccinimidyl oleate]: the “effect of CD36 inhibition on CF-mediated DiI-LDL uptake” value in the series on HepG2 cells (HepG2) is “failed to affect CF-mediated DiI-LDL uptake”.

Take `Cn1cnc2c1c(=O)[nH]c(=O)n2C` [theobromine]: in the series with PCSK9 [4], the “PCSK9 mRNA expression and secreted levels with increasing doses” value is “dose-dependent reduction”.
